Consider two compounds from paper PMC4286326 (Journal of the American Chemical Society, 2014).

The target in one assay is S31N mutant of M2 (A/M2) (Influenza A virus, UniProt P0DOF5, S31N). The assay is classed as biochemical. Conditions: 100 µM.
The test system of assay [1] is M2-S31N-expressing A/WSN/33. Format: cell-based, influenza A virus. Conditions: read-out: A/WSN/33 (S31N) EC50.

Values joined by “and” are separate entries in the source; they are usually repeats but may differ in a detail not shown here. Equal entries are not always repeated.

For the compound `NC12CC3CC(CC(C3)C1)C2` [Compound 1, amantadine, reference compound], the “% S31N inhibition” value at S31N mutant of M2 (A/M2) is 36%. In assay [1], the EC50 came to 22.5 µM.
Turning to `Brc1ccc(CNC23CC4CC(CC(C4)C2)C3)s1` [Compound 11, N-[(5-bromothiophen-2-yl)methyl]adamantan-1-amine], the “% S31N inhibition” value at S31N mutant of M2 (A/M2) was 76% and 76/N.T. %. The EC50 in assay [1] was 1.8 µM.
